#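 Test compounds were applied to cells in 96-well plates for 48 hours at 5 doses. GI50: concentration for 50% inhibition of growth.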 The source made the active and inactive calls. No stated cut-off is given here; in the data, active = GI50 up to about 1.1 µM and inactive = higher.
# Columns and labels:
# Test in all cases: NCI-60 cell line screen, 48 h
# SF-268 = tested on: SF-268
# RPMI-8226 = tested on: RPMI-8226
# XF498 = tested on: XF498
# ACHN = tested on: ACHN
# DLD-1 = tested on: DLD-1
# TK-10 = tested on: TK-10
# UACC-62 = tested on: UACC-62
# IGROV-1 = tested on: IGROV-1
# A549 = tested on: A549
# SK-MEL-5 = tested on: SK-MEL-5
# HT-29 = tested on: HT-29
# KM12 = tested on: KM12
# KM-20L2 = tested on: KM-20L2
# SW-620 = tested on: SW-620
# A498 = tested on: A498
# RXF 631 = tested on: RXF 631
# HL-60 = tested on: HL-60
# NCI-H460 = tested on: NCI-H460
# CCRF-CEM = tested on: CCRF-CEM
# 786-0 = tested on: 786-0
# HOP-18 = tested on: HOP-18
# CAKI-1 = tested on: CAKI-1
# MOLT-4 = tested on: MOLT-4
# HCC 2998 = tested on: HCC 2998
# OVCAR-3 = tested on: OVCAR-3
# COLO 205 = tested on: COLO 205
# SK-MEL-28 = tested on: SK-MEL-28
# HOP-92 = tested on: HOP-92
# HCT-15 = tested on: HCT-15
# NCI-H226 = tested on: NCI-H226
# SF-295 = tested on: SF-295
# SNB-75 = tested on: SNB-75
# Malme-3M = tested on: Malme-3M
# SN12C = tested on: SN12C
# U-251 = tested on: U-251
# SK-OV-3 = tested on: SK-OV-3
# LXFL 529 = tested on: LXFL 529
# K562 = tested on: K562
# OVCAR-5 = tested on: OVCAR-5
# EKVX = tested on: EKVX
# UACC-257 = tested on: UACC-257
# SNB-78 = tested on: SNB-78
# NCI-H522 = tested on: NCI-H522
# SNB-19 = tested on: SNB-19
# UO-31 = tested on: UO-31
# M14 = tested on: M14
# DMS-273 = tested on: DMS-273
# NCI-H23 = tested on: NCI-H23
# OVCAR-4 = tested on: OVCAR-4
# SK-MEL-2 = tested on: SK-MEL-2
# OVCAR-8 = tested on: OVCAR-8
# LOX IMVI = tested on: LOX IMVI
# HOP-62 = tested on: HOP-62
# SF-539 = tested on: SF-539
# M19-MEL = tested on: M19-MEL
smiles,measurement,setting,value
Cc1ccc(-c2c(N)[n+]([O-])c3ccccc3[n+]2[O-])cc1,GI50,SF-268,16.9 µM (inactive)
same,GI50,RPMI-8226,21.4 µM (inactive)
same,GI50,XF498,3.71 µM (inactive)
same,GI50,ACHN,15.4 µM (inactive)
same,GI50,DLD-1,13.1 µM (inactive)
same,GI50,TK-10,18.4 µM (inactive)
same,GI50,UACC-62,7.18 µM (inactive)
same,GI50,IGROV-1,14.9 µM (inactive)
same,GI50,A549,23.3 µM (inactive)
same,GI50,SK-MEL-5,11.4 µM (inactive)
same,GI50,HT-29,12.3 µM (inactive)
same,GI50,KM12,11.9 µM (inactive)
same,GI50,KM-20L2,15 µM (inactive)
same,GI50,SW-620,5.25 µM (inactive)
same,GI50,A498,> 10 µM (inactive)
same,GI50,RXF 631,1.65 µM (inactive)
same,GI50,HL-60,9.95 µM (inactive)
same,GI50,NCI-H460,18.7 µM (inactive)
same,GI50,CCRF-CEM,47.4 µM (inactive)
same,GI50,786-0,13.5 µM (inactive)
same,GI50,HOP-18,15.7 µM (inactive)
same,GI50,CAKI-1,3.81 µM (inactive)
same,GI50,MOLT-4,45.2 µM (inactive)
same,GI50,HCC 2998,15.8 µM (inactive)
same,GI50,OVCAR-3,16 µM (inactive)
same,GI50,COLO 205,15.2 µM (inactive)
same,GI50,SK-MEL-28,6.52 µM (inactive)
same,GI50,HOP-92,> 100 µM (inactive)
same,GI50,HCT-15,3.42 µM
same,GI50,NCI-H226,17.9 µM (inactive)
same,GI50,SF-295,20 µM (inactive)
same,GI50,SNB-75,12.2 µM (inactive)
same,GI50,Malme-3M,3.47 µM (inactive)
same,GI50,SN12C,10.6 µM (inactive)
same,GI50,U-251,14.3 µM (inactive)
same,GI50,SK-OV-3,21.2 µM (inactive)
same,GI50,LXFL 529,5.81 µM (inactive)
same,GI50,K562,15 µM (inactive)
same,GI50,OVCAR-5,17.9 µM (inactive)
same,GI50,EKVX,23.4 µM (inactive)
same,GI50,UACC-257,7.21 µM (inactive)
same,GI50,SNB-78,13 µM (inactive)
same,GI50,NCI-H522,1.55 µM (inactive)
same,GI50,SNB-19,12.7 µM (inactive)
same,GI50,UO-31,16.1 µM (inactive)
same,GI50,M14,12 µM (inactive)
same,GI50,DMS-273,13.4 µM (inactive)
same,GI50,NCI-H23,5 µM (inactive)
same,GI50,OVCAR-4,17.3 µM (inactive)
same,GI50,SK-MEL-2,8.51 µM (inactive)
same,GI50,OVCAR-8,23.4 µM (inactive)
same,GI50,LOX IMVI,11 µM (inactive)
same,GI50,HOP-62,17.1 µM (inactive)
same,GI50,SF-539,11 µM (inactive)
same,GI50,M19-MEL,11.7 µM (inactive)

# Reference: ChEMBL document CHEMBL1201862, “PubChem BioAssay data set” (2004)
